Columns and labels:
Assay type in all cases: in vivo
[1] = tested on: velvetleaf (Abutilon theophrasti); assay: Test G Post-Emergence Protocol; settings: Abutilon theophrasti, post-emergence, 312 h, read-out: Velvetleaf damage rating
How it was run: (§1)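 Pot-grown seedlings, 8 days old, raised in a glasshouse at 24/16 °C day/night with 14 h light and 65% humidity, were sprayed post-emergence with test compound in acetone/water (50:50) plus 0.5% Tween 20 at 15.625, 62.5 or 250 g/ha. Damage was scored visually 13 days later on a 0–100 scale (100 = total damage).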

[2] = tested on: redroot pigweed (Amaranthus retroflexus); assay: Test G Post-Emergence Protocol; settings: Amaranthus retroflexus, post-emergence, 312 h, read-out: Pigweed, Redroot damage rating
How it was run: as §1

[3] = tested on: giant foxtail (Setaria faberi); assay: Test G Post-Emergence Protocol; settings: Setaria faberi, post-emergence, 312 h, read-out: Foxtail, Giant damage rating
How it was run: as §1

[4] = tested on: ivy-leaved morning glory (Ipomoea hederacea); assay: Test G Post-Emergence Protocol; settings: Ipomoea, post-emergence, 312 h, read-out: Morningglory, Ivy-leaved damage rating
How it was run: as §1

corn (Zea mays) [5] = assay: Test G Post-Emergence Protocol; settings: Zea mays, post-emergence, 312 h, read-out: Corn damage rating
How it was run: as §1

[6] = tested on: barnyardgrass (Echinochloa crus-galli); assay: Test G Post-Emergence Protocol; settings: Echinochloa crus-galli, post-emergence, 312 h, read-out: Barnyardgrass damage rating
How it was run: as §1

[7] = tested on: velvetleaf (Abutilon theophrasti); assay: Test G Pre-Emergence Protocol; settings: Abutilon theophrasti, pre-emergence, 312 h, evaluated after 13 days
How it was run: (§2)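 Spraying took place one day after sowing, at 15.625, 62.5 or 250 g/ha, using an acetone/water (50:50) spray solution containing 0.5% Tween 20. Plants were kept under glasshouse conditions (24/16 °C, 14 h light, 65% humidity, watered twice daily), and injury was rated 0–100 at day 13.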

[8] = tested on: redroot pigweed (Amaranthus retroflexus); assay: Test G Pre-Emergence Protocol; settings: Amaranthus retroflexus, pre-emergence, 312 h, evaluated after 13 days
How it was run: as §2

[9] = tested on: giant foxtail (Setaria faberi); assay: Test G Pre-Emergence Protocol; settings: Setaria faberi, pre-emergence, 312 h, evaluated after 13 days
How it was run: as §2

[10] = tested on: ivy-leaved morning glory (Ipomoea hederacea); assay: Test G Pre-Emergence Protocol; settings: Ipomoea, pre-emergence, 312 h, evaluated after 13 days
How it was run: as §2

corn (Zea mays) [11] = assay: Test G Pre-Emergence Protocol; settings: Zea mays, pre-emergence, 312 h, evaluated after 13 days
How it was run: as §2

[12] = tested on: barnyardgrass (Echinochloa crus-galli); assay: Test G Pre-Emergence Protocol; settings: Echinochloa crus-galli, pre-emergence, 312 h, evaluated after 13 days
How it was run: as §2

[13] = 15.625 g ai/ha, evaluated after 13 days (100=total damage to plant; 0=no damage to plant)
[14] = 62.5 g ai/ha, evaluated after 13 days, 100=total damage to plant, 0=no damage to plant
[15] = 250 g ai/ha, evaluated after 13 days, 100=total damage to plant, 0=no damage to plant

COc1c(F)cc(C2CN(C)C(=O)C2C(=O)Nc2cccc(F)c2F)cc1F (stereo not drawn) [Compound 1702]
pest or weed control at 15.625 g/ha [1, 13]: 10% | pest or weed control at 62.5 g/ha [1, 14]: 20% | pest or weed control at 250 g/ha [1, 15]: 70% | pest or weed control at 15.625 g/ha [2, 13]: 10% | pest or weed control at 62.5 g/ha [2, 14]: 10% | pest or weed control at 250 g/ha [2, 15]: 40% | pest or weed control at 15.625 g/ha [3, 13]: 70% | pest or weed control at 62.5 g/ha [3, 14]: 80% | pest or weed control at 250 g/ha [3, 15]: 80% | pest or weed control at 15.625 g/ha [4, 13]: 10% | pest or weed control at 62.5 g/ha [4, 14]: 60% | pest or weed control at 250 g/ha [4, 15]: 70% | plant injury at 15.625 g/ha (corn (Zea mays) [5]; [13]): 20% | plant injury at 62.5 g/ha (corn (Zea mays) [5]; [14]): 20% | plant injury at 250 g/ha (corn (Zea mays) [5]; [15]): 80% | pest or weed control at 15.625 g/ha [6, 13]: 60% | pest or weed control at 62.5 g/ha [6, 14]: 70% | pest or weed control at 250 g/ha [6, 15]: 80% | pest or weed control at 15.625 g/ha ([7]; 15.625 g ai/ha, read-out: Velvetleaf damage rating (100=total damage to plant; 0=no damage to plant)): 0% | pest or weed control at 62.5 g/ha ([7]; 62.5 g ai/ha, 100=total damage to plant, 0=no damage to plant, read-out: Velvetleaf damage rating): 10% | pest or weed control at 250 g/ha ([7]; 250 g ai/ha, read-out: Velvetleaf damage rating (100=total damage to plant; 0=no damage to plant)): 70% | pest or weed control at 15.625 g/ha ([8]; 15.625 g ai/ha, read-out: Pigweed, Redroot damage rating (100=total damage to plant; 0=no damage to plant)): 0% | pest or weed control at 62.5 g/ha ([8]; 62.5 g ai/ha, 100=total damage to plant, 0=no damage to plant, read-out: Pigweed, Redroot damage rating): 0% | pest or weed control at 250 g/ha ([8]; 250 g ai/ha, read-out: Pigweed, Redroot damage rating (100=total damage to plant; 0=no damage to plant)): 50% | pest or weed control at 15.625 g/ha ([9]; 15.625 g ai/ha, read-out: Foxtail, Giant damage rating (100=total damage to plant; 0=no damage to plant)): 70% | pest or weed control at 62.5 g/ha ([9]; 62.5 g ai/ha, 100=total damage to plant, 0=no damage to plant, read-out: Foxtail, Giant damage rating): 80% | pest or weed control at 250 g/ha ([9]; 250 g ai/ha, read-out: Foxtail, Giant damage rating (100=total damage to plant; 0=no damage to plant)): 90% | pest or weed control at 15.625 g/ha ([10]; 15.625 g ai/ha, read-out: Morningglory, Ivy-leaved damage rating (100=total damage to plant; 0=no damage to plant)): 0% | pest or weed control at 62.5 g/ha ([10]; 62.5 g ai/ha, 100=total damage to plant, 0=no damage to plant, read-out: Morningglory, Ivy-leaved damage rating): 30% | pest or weed control at 250 g/ha ([10]; 250 g ai/ha, read-out: Morningglory, Ivy-leaved damage rating (100=total damage to plant; 0=no damage to plant)): 40% | plant injury at 15.625 g/ha (corn (Zea mays) [11]; 15.625 g ai/ha, read-out: Corn damage rating (100=total damage to plant; 0=no damage to plant)): 20% | plant injury at 62.5 g/ha (corn (Zea mays) [11]; 62.5 g ai/ha, 100=total damage to plant, 0=no damage to plant, read-out: Corn damage rating): 70% | plant injury at 250 g/ha (corn (Zea mays) [11]; 250 g ai/ha, read-out: Corn damage rating (100=total damage to plant; 0=no damage to plant)): 90% | pest or weed control at 15.625 g/ha ([12]; 15.625 g ai/ha, read-out: Barnyardgrass damage rating (100=total damage to plant; 0=no damage to plant)): 50% | pest or weed control at 62.5 g/ha ([12]; 62.5 g ai/ha, 100=total damage to plant, 0=no damage to plant, read-out: Barnyardgrass damage rating): 70% | pest or weed control at 250 g/ha ([12]; 250 g ai/ha, read-out: Barnyardgrass damage rating (100=total damage to plant; 0=no damage to plant)): 90%

Reference: patent publication US12077503B2, “Substituted cyclic amides and their use as herbicides” (FMC CORPORATION, priority 2015, dated 2024)
